Measurements reported in patent publication EP4745137A1 (Gluetacs Therapeutics (Shanghai) Co., Ltd., priority 2023, dated 2025).

Columns and labels:
[1] = target: T1, GSPT1 (Homo sapiens, UniProt P15170+Q96SW2); assay: Western-blot assay of substrate protein degradation in hPBMCs, GSPT1; type: cell-based; settings: 24 hours of compound treatment, compounds tested at 50 nM and 500 nM (concentration of the table not stated)
T1 construct: endogenous in cells; host or cells: hPBMCs (Milecell Biotechnologies)

[2] = target: T2, IKZF2 (Homo sapiens, UniProt Q96SW2+Q9UKS7); assay: Western-blot assay of substrate protein degradation in hPBMCs, IKZF2; type: cell-based; settings: 24 hours of compound treatment, compounds tested at 50 nM and 500 nM (concentration of the table not stated)
T2 construct: endogenous in cells; host or cells: hPBMCs (Milecell Biotechnologies)

[3] = target: T3, IKZF3 (Homo sapiens, UniProt Q96SW2+Q9UKT9); assay: Western-blot assay of substrate protein degradation in hPBMCs, IKZF3; type: cell-based; settings: 24 hours of compound treatment, compounds tested at 50 nM and 500 nM (concentration of the table not stated)
T3 construct: endogenous in cells; host or cells: hPBMCs (Milecell Biotechnologies)

[4] = target: T4, CK1α (Homo sapiens, UniProt P48729+Q96SW2); assay: Western-blot assay of substrate protein degradation in hPBMCs, CK1α; type: cell-based; settings: 24 hours of compound treatment, compounds tested at 50 nM and 500 nM (concentration of the table not stated)
T4 construct: endogenous in cells; host or cells: hPBMCs (Milecell Biotechnologies)

[5] = target: T5, IKZF1 (Homo sapiens, UniProt Q13422+Q96SW2); assay: Western-blot assay of substrate protein degradation in hPBMCs, IKZF1; type: cell-based; settings: 24 hours of compound treatment, compounds tested at 50 nM and 500 nM (concentration of the table not stated)
T5 construct: endogenous in cells; host or cells: hPBMCs (Milecell Biotechnologies)

[6] = target: T6, WEE1 (Homo sapiens, UniProt P30291+Q96SW2); assay: Western-blot assay of substrate protein degradation in hPBMCs, WEE1; type: cell-based; settings: 24 hours of compound treatment, compounds tested at 50 nM and 500 nM (concentration of the table not stated)
T6 construct: endogenous in cells; host or cells: hPBMCs (Milecell Biotechnologies)

[7] = target: T7, human Cereblon WT GST-tagged protein (Homo sapiens, UniProt Q96SW2); assay: CRBN-binding affinity by HTRF (CEREBLON BINDING kit); settings: HTRF inhibitory activity, CEREBLON BINDING kit; read-out: HTRF IC50
T7 construct: purchased CISBIO 64BDCRBNPEH
Description: The CEREBLON BINDING kits (specification: 10,000 tests; product number: Catalog # 64BDCRBNPEH; CISBIO company) was used to determine the CRBN binding ability of the compounds to be tested through a HTRF method (homogeneous time-resolved fluorescence). The specific methods are as follows: • 1. […] Specifically, diluent #9 (1X) solution was used as the diluent, and multiple concentration gradients were set. […] Then, 2.5 µL of human Cereblon WT GST-tagged protein solution was added to each well. Finally, 5 µL of the thoroughly mixed Thalidomide-Re reagent and GST Eu antibody working solution were added to each of the aforementioned wells. […] The blank control wells were sequentially added with 2.5 µL of diluent #9 (1X) solution, 2.5 µL of binding buffer, and 5 µL of thoroughly mixed Thalidomide-Re reagent and GST Eu antibody working solution. • 4.

T5 sequence (Q13422 whole entry): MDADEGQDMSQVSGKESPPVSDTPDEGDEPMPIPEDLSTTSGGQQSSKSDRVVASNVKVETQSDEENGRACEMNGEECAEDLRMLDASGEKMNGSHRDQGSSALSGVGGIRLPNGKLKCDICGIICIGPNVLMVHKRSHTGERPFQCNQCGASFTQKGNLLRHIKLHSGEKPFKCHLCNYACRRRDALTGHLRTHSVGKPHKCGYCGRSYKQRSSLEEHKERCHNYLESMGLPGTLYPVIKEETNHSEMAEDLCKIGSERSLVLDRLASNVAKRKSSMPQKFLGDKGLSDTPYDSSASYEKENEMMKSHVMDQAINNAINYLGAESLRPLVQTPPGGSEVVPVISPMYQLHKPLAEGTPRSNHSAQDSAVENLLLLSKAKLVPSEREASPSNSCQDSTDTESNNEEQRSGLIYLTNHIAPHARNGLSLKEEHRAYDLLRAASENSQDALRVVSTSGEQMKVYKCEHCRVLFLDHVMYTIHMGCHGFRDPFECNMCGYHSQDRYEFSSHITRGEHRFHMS
T5 sequence (Q96SW2 whole entry): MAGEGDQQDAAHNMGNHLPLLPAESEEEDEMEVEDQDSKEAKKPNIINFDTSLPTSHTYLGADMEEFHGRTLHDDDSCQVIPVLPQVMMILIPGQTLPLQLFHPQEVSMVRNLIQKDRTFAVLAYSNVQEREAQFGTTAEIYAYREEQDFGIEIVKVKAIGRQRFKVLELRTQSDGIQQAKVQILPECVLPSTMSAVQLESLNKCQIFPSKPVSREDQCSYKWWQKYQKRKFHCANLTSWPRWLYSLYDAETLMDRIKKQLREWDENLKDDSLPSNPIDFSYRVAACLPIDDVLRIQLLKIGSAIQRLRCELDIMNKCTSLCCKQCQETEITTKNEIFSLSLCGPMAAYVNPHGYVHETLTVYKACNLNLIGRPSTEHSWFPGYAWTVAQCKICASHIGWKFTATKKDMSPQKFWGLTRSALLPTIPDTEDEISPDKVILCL
T5 sequence (Q16531 whole entry partner): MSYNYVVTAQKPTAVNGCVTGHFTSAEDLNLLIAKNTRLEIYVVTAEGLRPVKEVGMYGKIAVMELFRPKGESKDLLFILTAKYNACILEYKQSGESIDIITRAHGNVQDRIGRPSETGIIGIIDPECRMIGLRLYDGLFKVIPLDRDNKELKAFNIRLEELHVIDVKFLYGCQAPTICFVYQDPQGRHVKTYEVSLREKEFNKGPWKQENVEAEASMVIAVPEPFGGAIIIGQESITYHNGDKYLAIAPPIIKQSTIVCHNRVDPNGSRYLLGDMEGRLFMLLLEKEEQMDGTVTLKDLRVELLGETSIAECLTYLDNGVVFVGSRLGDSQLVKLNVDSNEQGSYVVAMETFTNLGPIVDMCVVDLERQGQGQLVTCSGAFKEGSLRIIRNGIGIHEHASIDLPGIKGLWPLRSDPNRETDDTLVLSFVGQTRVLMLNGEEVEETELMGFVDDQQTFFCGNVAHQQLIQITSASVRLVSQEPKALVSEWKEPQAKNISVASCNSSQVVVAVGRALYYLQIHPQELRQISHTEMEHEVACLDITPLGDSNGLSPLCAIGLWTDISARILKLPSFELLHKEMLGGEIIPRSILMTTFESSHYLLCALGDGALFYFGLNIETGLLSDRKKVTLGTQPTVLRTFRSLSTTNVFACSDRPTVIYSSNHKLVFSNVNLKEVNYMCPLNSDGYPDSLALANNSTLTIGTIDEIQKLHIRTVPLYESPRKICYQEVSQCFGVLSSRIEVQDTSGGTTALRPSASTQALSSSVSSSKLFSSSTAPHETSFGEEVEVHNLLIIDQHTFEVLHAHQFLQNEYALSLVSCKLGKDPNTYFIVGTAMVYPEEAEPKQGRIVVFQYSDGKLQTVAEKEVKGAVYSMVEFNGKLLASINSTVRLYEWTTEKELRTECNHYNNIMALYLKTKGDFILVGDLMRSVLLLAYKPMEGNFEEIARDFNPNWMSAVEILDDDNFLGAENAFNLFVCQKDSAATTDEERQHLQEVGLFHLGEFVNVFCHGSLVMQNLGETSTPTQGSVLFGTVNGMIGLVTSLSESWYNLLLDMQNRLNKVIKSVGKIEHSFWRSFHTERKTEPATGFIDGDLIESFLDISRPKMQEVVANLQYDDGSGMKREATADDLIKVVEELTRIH
T6 sequence (P30291 whole entry): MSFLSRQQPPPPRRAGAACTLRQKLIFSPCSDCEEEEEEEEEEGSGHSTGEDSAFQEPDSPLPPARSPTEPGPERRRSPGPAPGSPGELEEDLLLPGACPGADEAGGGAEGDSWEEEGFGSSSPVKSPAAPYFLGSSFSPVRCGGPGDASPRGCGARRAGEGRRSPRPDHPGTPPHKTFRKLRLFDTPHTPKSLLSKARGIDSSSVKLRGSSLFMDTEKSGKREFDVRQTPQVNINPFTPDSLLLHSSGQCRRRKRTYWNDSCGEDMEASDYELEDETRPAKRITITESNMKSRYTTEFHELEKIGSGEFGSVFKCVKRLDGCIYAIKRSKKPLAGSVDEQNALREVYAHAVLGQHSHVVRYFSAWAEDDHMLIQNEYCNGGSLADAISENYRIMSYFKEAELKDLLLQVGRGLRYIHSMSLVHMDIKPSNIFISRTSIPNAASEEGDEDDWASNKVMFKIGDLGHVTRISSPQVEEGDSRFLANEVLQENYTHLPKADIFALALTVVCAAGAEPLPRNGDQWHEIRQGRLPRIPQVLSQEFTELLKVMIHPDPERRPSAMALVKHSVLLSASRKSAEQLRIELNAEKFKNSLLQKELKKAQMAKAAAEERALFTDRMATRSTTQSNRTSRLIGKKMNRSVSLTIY
T6 sequence (Q96SW2 whole entry): as the sequence (Q96SW2 whole entry) above
T6 sequence (Q16531 whole entry partner): as the sequence (Q16531 whole entry partner) above
T3 sequence (Q9UKT9 whole entry): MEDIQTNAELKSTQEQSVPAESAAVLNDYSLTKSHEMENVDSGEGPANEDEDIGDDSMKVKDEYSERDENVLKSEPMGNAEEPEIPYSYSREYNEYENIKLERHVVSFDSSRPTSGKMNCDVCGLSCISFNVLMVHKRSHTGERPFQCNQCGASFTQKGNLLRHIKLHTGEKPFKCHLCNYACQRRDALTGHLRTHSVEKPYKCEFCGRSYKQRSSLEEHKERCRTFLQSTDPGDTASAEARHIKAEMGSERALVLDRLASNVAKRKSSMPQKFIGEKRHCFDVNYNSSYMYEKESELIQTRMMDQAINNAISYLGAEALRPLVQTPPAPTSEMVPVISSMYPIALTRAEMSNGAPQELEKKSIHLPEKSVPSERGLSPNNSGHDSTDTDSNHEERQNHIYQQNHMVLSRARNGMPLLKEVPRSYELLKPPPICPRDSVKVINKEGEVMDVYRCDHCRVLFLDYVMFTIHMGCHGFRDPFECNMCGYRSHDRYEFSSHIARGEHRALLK
T3 sequence (Q96SW2 whole entry): as the sequence (Q96SW2 whole entry) above
T3 sequence (Q16531 whole entry partner): as the sequence (Q16531 whole entry partner) above
T1 sequence (P15170 whole entry): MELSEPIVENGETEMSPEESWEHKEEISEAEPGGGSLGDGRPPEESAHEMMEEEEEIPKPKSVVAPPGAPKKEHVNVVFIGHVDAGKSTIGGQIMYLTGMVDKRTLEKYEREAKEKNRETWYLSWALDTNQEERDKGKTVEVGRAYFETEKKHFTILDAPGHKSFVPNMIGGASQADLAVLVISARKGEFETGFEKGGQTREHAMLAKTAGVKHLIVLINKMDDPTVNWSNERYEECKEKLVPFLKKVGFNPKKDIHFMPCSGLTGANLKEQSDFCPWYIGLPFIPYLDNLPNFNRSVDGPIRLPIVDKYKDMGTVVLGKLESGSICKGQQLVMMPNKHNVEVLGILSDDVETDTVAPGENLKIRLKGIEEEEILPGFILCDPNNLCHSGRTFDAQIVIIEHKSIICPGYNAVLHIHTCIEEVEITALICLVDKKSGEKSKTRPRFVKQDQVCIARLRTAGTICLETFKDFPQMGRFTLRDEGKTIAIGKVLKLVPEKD
T1 sequence (Q96SW2 whole entry): as the sequence (Q96SW2 whole entry) above
T1 sequence (Q16531 whole entry partner): as the sequence (Q16531 whole entry partner) above
T7 sequence (Q96SW2 whole entry): as the sequence (Q96SW2 whole entry) above
T2 sequence (Q9UKS7 whole entry): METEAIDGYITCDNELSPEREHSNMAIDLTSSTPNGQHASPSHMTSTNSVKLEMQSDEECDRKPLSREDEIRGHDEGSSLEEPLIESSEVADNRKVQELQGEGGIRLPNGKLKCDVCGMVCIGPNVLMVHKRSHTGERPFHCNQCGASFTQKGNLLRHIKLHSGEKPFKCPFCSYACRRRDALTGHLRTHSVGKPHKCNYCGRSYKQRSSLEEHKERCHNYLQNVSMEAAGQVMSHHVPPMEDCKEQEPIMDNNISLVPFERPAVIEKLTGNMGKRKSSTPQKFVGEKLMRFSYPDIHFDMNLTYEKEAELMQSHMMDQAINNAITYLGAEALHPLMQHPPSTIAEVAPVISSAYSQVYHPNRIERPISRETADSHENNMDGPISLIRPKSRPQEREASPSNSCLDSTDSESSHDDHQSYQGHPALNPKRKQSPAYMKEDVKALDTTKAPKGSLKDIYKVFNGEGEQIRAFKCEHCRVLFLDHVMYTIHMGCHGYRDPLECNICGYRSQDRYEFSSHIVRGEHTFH
T2 sequence (Q96SW2 whole entry): as the sequence (Q96SW2 whole entry) above
T2 sequence (Q16531 whole entry partner): as the sequence (Q16531 whole entry partner) above

Compound	IC50 [7] [µM]	GSPT1 substrate protein remaining % [1]	IKZF2 substrate protein remaining % [2]	IKZF3 substrate protein remaining % [3]	CK1a substrate protein remaining % [4]	IKZF 1 substrate protein remaining % [5]	Weel substrate protein remaining % [6]
O=C1CCC(N2Cc3cc(CN4CCN(c5ccc(Cl)cc5Cl)CC4)ccc3C2=O)C(=O)N1 (stereo not drawn) [GT-04464, 3-(5-((4-(2,4-dichlorophenyl)piperazin-1-yl)methyl)-1-oxoisoindolin-2-yl)piperidine-2,6-dione]	1 to 1.5	A (0% ≤ substrate protein remaining % ≤ 80%)	A (0% ≤ substrate protein remaining % ≤ 80%)	B (80%< substrate protein remaining %≤ 100%)	B (80%< substrate protein remaining %≤ 100%)	B (80%< substrate protein remaining %≤ 100%)	B (80%< substrate protein remaining %≤ 100%)
O=C1CCC(N2Cc3cc(CN4CCN(c5cccnn5)CC4)ccc3C2=O)C(=O)N1 (stereo not drawn) [GT-04473, 3-(1-oxo-5-((4-(pyridazin-3-yl)piperazin-1-yl)methyl)isoindolin-2-yl)piperidine-2,6-dione]	0.5 to 1	A (0% ≤ substrate protein remaining % ≤ 80%)	B (80%< substrate protein remaining %≤ 100%)	B (80%< substrate protein remaining %≤ 100%)	B (80%< substrate protein remaining %≤ 100%)	A (0% ≤ substrate protein remaining % ≤ 80%)	A (0% ≤ substrate protein remaining % ≤ 80%)
O=C1CCC(N2Cc3cc(CN4CCN(c5ncc(Cl)cc5Cl)CC4)ccc3C2=O)C(=O)N1 (stereo not drawn) [GT-04479, 3-(5-((4-(3,5-dichloropyridin-2-yl)piperazin-1-yl)methyl)-1-oxoisoindolin-2-yl)piperidine-2,6-dione]	0.5 to 1	A (0% ≤ substrate protein remaining % ≤ 80%)	A (0% ≤ substrate protein remaining % ≤ 80%)	A (0% ≤ substrate protein remaining % ≤ 80%)	B (80%< substrate protein remaining %≤ 100%)	B (80%< substrate protein remaining %≤ 100%)	B (80%< substrate protein remaining %≤ 100%)
O=C1CCC(N2Cc3cc(CN4CCN(c5ncc(C(F)(F)F)cc5Cl)CC4)ccc3C2=O)C(=O)N1 (stereo not drawn) [GT-04480, 3-(5-((4-(3-chloro-5-(trifluoromethyl)pyridin-2-yl)piperazin-1-yl)methyl)-1-oxoisoindolin-2-yl)piperidine-2,6-dione]	1.5 to 1.9	A (0% ≤ substrate protein remaining % ≤ 80%)	A (0% ≤ substrate protein remaining % ≤ 80%)	A (0% ≤ substrate protein remaining % ≤ 80%)	A (0% ≤ substrate protein remaining % ≤ 80%)	A (0% ≤ substrate protein remaining % ≤ 80%)	A (0% ≤ substrate protein remaining % ≤ 80%)
O=C1CCC(N2Cc3cc(CN4CCN(c5ccncc5Cl)CC4)ccc3C2=O)C(=O)N1 (stereo not drawn) [GT-04481, 3-(5-((4-(3-chloropyridin-4-yl)piperazin-1-yl)methyl)-1-oxoisoindolin-2-yl)piperidine-2,6-dione]	0.5 to 1	A (0% ≤ substrate protein remaining % ≤ 80%)	A (0% ≤ substrate protein remaining % ≤ 80%)	B (80%< substrate protein remaining %≤ 100%)	A (0% ≤ substrate protein remaining % ≤ 80%)	A (0% ≤ substrate protein remaining % ≤ 80%)	A (0% ≤ substrate protein remaining % ≤ 80%)
O=C1CCC(N2Cc3cc(CN4CCN(c5ccc(Cl)nn5)CC4)ccc3C2=O)C(=O)N1 (stereo not drawn) [GT-04482, 3-(5-((4-(6-chloropyridazin-3-yl)piperazin-1-yl)methyl)-1-oxoisoindolin-2-yl)piperidine-2,6-dione]	0.5 to 1	A (0% ≤ substrate protein remaining % ≤ 80%)	A (0% ≤ substrate protein remaining % ≤ 80%)	B (80%< substrate protein remaining %≤ 100%)	A (0% ≤ substrate protein remaining % ≤ 80%)	B (80%< substrate protein remaining %≤ 100%)	A (0% ≤ substrate protein remaining % ≤ 80%)
O=C1CCC(N2Cc3cc(CN4CCN(c5cnccn5)CC4)ccc3C2=O)C(=O)N1 (stereo not drawn) [GT-04483, 3-(1-oxo-5-((4-(pyrazin-2-yl)piperazin-1-yl)methyl)isoindolin-2-yl)piperidine-2,6-dione]	0.5 to 1	A (0% ≤ substrate protein remaining % ≤ 80%)	A (0% ≤ substrate protein remaining % ≤ 80%)	B (80%< substrate protein remaining %≤ 100%)	A (0% ≤ substrate protein remaining % ≤ 80%)	B (80%< substrate protein remaining %≤ 100%)	A (0% ≤ substrate protein remaining % ≤ 80%)
O=C1CCC(N2Cc3cc(CN4CCN(c5ncccn5)CC4)ccc3C2=O)C(=O)N1 (stereo not drawn) [GT-04484, 3-(1-oxo-5-((4-(pyrimidin-2-yl)piperazin-1-yl)methyl)isoindolin-2-yl)piperidine-2,6-dione]	0.5 to 1	A (0% ≤ substrate protein remaining % ≤ 80%)	A (0% ≤ substrate protein remaining % ≤ 80%)	B (80%< substrate protein remaining %≤ 100%)	A (0% ≤ substrate protein remaining % ≤ 80%)	B (80%< substrate protein remaining %≤ 100%)	A (0% ≤ substrate protein remaining % ≤ 80%)

Continued, in another order:

IC50 [7] [µM]	Compound	GSPT1 substrate protein remaining % [1]	IKZF2 substrate protein remaining % [2]	IKZF3 substrate protein remaining % [3]	CK1a substrate protein remaining % [4]	IKZF 1 substrate protein remaining % [5]	Weel substrate protein remaining % [6]
0.5 to 1	O=C1CCC(N2Cc3cc(CN4CCN(c5ncncn5)CC4)ccc3C2=O)C(=O)N1 (stereo not drawn) [GT-04486, 3-(5-((4-(1,3,5-triazin-2-yl)piperazin-1-yl)methyl)-1-oxoisoindolin-2-yl)piperidine-2,6-dione]	A (0% ≤ substrate protein remaining % ≤ 80%)	A (0% ≤ substrate protein remaining % ≤ 80%)	B (80%< substrate protein remaining %≤ 100%)	A (0% ≤ substrate protein remaining % ≤ 80%)	A (0% ≤ substrate protein remaining % ≤ 80%)	A (0% ≤ substrate protein remaining % ≤ 80%)
0.5 to 1	O=C1CCC(N2Cc3cc(CN4CCC(c5ccccc5C(F)(F)F)CC4)ccc3C2=O)C(=O)N1 (stereo not drawn) [GT-04488, 3-(1-oxo-5-((4-(2-(trifluoromethyl)phenyl)piperidin-1-yl)methyl)isoindolin-2-yl)piperidine-2,6-dione]	A (0% ≤ substrate protein remaining % ≤ 80%)	A (0% ≤ substrate protein remaining % ≤ 80%)	B (80%< substrate protein remaining %≤ 100%)	A (0% ≤ substrate protein remaining % ≤ 80%)	B (80%< substrate protein remaining %≤ 100%)	B (80%< substrate protein remaining %≤ 100%)
0.5 to 1	Cc1cc(N2CCN(Cc3ccc4c(c3)CN(C3CCC(=O)NC3=O)C4=O)CC2)cc(C)n1 (stereo not drawn) [GT-04492, 3-(5-((4-(2,6-dimethylpyridin-4-yl)piperazin-1-yl)methyl)-1-oxoisoindolin-2-yl)piperidine-2,6-dione]	A (0% ≤ substrate protein remaining % ≤ 80%)	B (80%< substrate protein remaining %≤ 100%)	B (80%< substrate protein remaining %≤ 100%)	A (0% ≤ substrate protein remaining % ≤ 80%)	B (80%< substrate protein remaining %≤ 100%)	B (80%< substrate protein remaining %≤ 100%)
0.5 to 1	O=C1CCC(N2Cc3cc(CN4CCN(c5c(F)c(F)nc(F)c5F)CC4)ccc3C2=O)C(=O)N1 (stereo not drawn) [GT-04499, 3-(1-oxo-5-((4-(perfluoropyridin-4-yl)piperazin-1-yl)methyl)isoindolin-2-yl)piperidine-2,6-dione]	A (0% ≤ substrate protein remaining % ≤ 80%)	A (0% ≤ substrate protein remaining % ≤ 80%)	A (0% ≤ substrate protein remaining % ≤ 80%)	A (0% ≤ substrate protein remaining % ≤ 80%)	A (0% ≤ substrate protein remaining % ≤ 80%)	A (0% ≤ substrate protein remaining % ≤ 80%)
